Experiments:
Type in all cases: in vivo
panelists = assay: Panel tasting of solutions of cooling compounds: concentration with cooling intensity similar or slightly higher than menthol at 2 ppm; details: solution with cooling intensity similar or slightly higher than a solution of menthol at 2 ppm; small group of panelists
mouth [1] = assay: Application in chewing gum: gum stick chewed by a panelist for 15 minutes and spit out
Experimental: All the ingredients are mixed in the prewarmed gum base. The mixture is spread in thick films, cooled down and cut in sticks. A gum stick is chewed by a panelist for 15 minutes and spit out. […] When spit out, the cooling sensation becomes intense and lasts for several hours

mouth [2] = assay: Application in toothpaste: panelist's teeth brushed with toothgel, mouth rinsed with water
Text: The chemicals are mixed in the toothgel, a piece of toothgel was put on a toothbrush and a panelist's teeth were brushed. The mouth was rinsed with water and the water was spit out. […] The cooling perception lasted for several hours.

| Structure (SMILES) | Concentration (panelists) [ppm] | also measured |
| --- | --- | --- |
| CC1CCC(C(C)C)C(C(=O)Nc2ccc(C(N)=O)cc2)C1 (stereo not drawn) [Example 1, N-(4-carboxamidophenyl) p-menthanecarboxamide] | 0.15 | cooling sensation when spit out (mouth [1]; chewing gum with 0.100 g compound per about 100 g, with peppermint oil, after 15 minutes of chewing): intense; cooling sensation when chewed (mouth [1]; chewing gum with 0.100 g compound per about 100 g, with peppermint oil, chewed 15 minutes, all areas of the mouth): agreeable cooling sensation; duration of cooling sensation (mouth [1]; chewing gum, after it is spit out): several hours |
| CC1CCC(C(C)C)C(O)C1 (stereo not drawn) [Example 1-Menthol, 1-Menthol, reference compound] | 2.0 |  |
| CC1CCC(C(C)C)C(C(=O)Nc2cccc(C(N)=O)c2)C1 (stereo not drawn) [Example 2, N-(3-carboxamidophenyl) p-menthanecarboxamide] | 0.2 |  |
| CC1CCC(C(C)C)C(C(=O)Nc2ccccc2C(N)=O)C1 (stereo not drawn) [Example 3, N-(2-carboxamidophenyl) p-menthanecarboxamide] | 0.5 | cooling sensation after brushing (mouth [2]; 0.500 g of a 5% gel in peppermint oil in 99.500 g opaque toothgel, after rinsing, all areas of the mouth): intense cooling sensation; duration of cooling perception (mouth [2]; toothgel, after brushing and rinsing): several hours |
| COCCNC(=O)c1ccc(NC(=O)C2CC(C)CCC2C(C)C)cc1 (stereo not drawn) [Example 4, 4-[p-menthanecarbonyl-amino]-N-(2-methoxy-ethyl)-benzamide] | 0.25 |  |
| CC1CCC(C(C)C)C(C(=O)Nc2ccc(C(=O)N3CCN(C)CC3)cc2)C1 (stereo not drawn) [Example 5, N-(4-(4-methylpiperazine-1-carbonyl)phenyl) p-menthanecarboxamide] | 0.4 |  |
| CCNC(=O)C1CC(C)CCC1C(C)C (stereo not drawn) [N-ethyl p-menthanecarboxamide (WS-3), N-ethyl p-menthanecarboxamide, reference compound] | 1.5 |  |

Reference: US20090105237A1, “Cooling compounds” (priority 2005, published 2009)
